Series [1] relates to MDA-MB-231 breast cancer line. As to the kind of experiment: cells. The series is classed as cell-based, human. The method, then: PND was added to cultures of the MDA-MB-231 breast cancer line 24 hours after the cells were treated with a selection of known commercial chemotherapeutic drugs, before the cells were analyzed for cell death. Each of the drugs are known to have serious side-effects at the does commonly administered for the treatment of cancer. The dose of the chemotherapeutic drugs was reduced to one half, one fourth, one eighth, and one sixteenth of the initial dose; while the dose of PND was kept the same. The effect of these combinational therapies was measured by the concentration of each compound needed to be cytotoxic to at least 50 percent of cancer cells (CC50).

For series [2], the system named is plasmid dsDNA (pCMV-dR8.91). As to the kind of experiment: DNA mobility-shift assay (agarose gel). In kind it is binding. On the set-up: DNA mobility shift: unit of the concentration uncertain. How it is done:
Typically, an experimental compound intercalating or binding to double stranded (ds) DNA will increase the molecular mass resulting from forming complexes, decreasing its electrophoretic mobility in an agarose gel, as compared with untreated dsDNA. To explore the potential interaction between PND and dsDNA, a DNA mobility-shift assay was conducted. Each reaction mixture was of 10 μl total volume in PBS pH 7.4. Both PND (Sigma-Aldrich) and quinacrine (Sigma-Aldrich) were tested with three individual concentrations of 1 μM, 0.5 μM or 0.25 μM, respectively. To each reaction mixture, 100 ng of plasmid dsDNA (pCMV-dR8.91; Addgene, Cambridge, MA) was added and the mixture was then incubated for 30 min at 37° C. and stopped by adding 2 μl of 6× gel loading buffer and placed on ice. The potential binding interaction between both PND and quinacrine with dsDNA were analyzed by using 1% (w/v) agarose-gel electrophoresis dissolved in TAE buffer (0.04 M Tris base, 0.04 M acetate and 0.001 M EDTA) pH 8.0. To stain the dsDNA complexes, Ethidium bromide was added to the agarose gel throughout the electrophoresis process at a concentration of 0.5 μg/ml. DNA migration was visualized by utilizing a gel documentation system and pictures were captured by using a UV-light transilluminator (Alpha Innotech, San Leandro, CA). The well-known DNA intercalator fluorescent compound, propidium iodide (PI), was included as positive controls at 1 μg per reaction. As a control, untreated plasmid DNA was included to determine its normal electrophoretic mobility in the gel.

In the next series the test system is MDA-MB-231 cells. Kind of series: Phosphatidylserine externalization, annexin V-FITC/PI flow cytometry. The series is classed as cell-based, human. The conditions noted are these: positive control, 24 h. How it is done: (§1) To determine whether cell death induced by PND was occurring through apoptosis or necrosis, MDA-MB-231 and HL-60 cells were stained with annexin V-FITC and PI and monitored via flow cytometry. Cells were seeded in 24-well plates at a density of 100,000 for adherent MDA-MB-231 and 200,000 HL-60 cells in 1 ml of culture media. After overnight incubation, cells were treated with PND, and incubated for an additional 24 h. For MDA-MB-231 cells, unattached cells were harvested in an ice-cold tube, while adhered cells were detached by using HyQtase (Thermo Fisher) and incubated for around 5 min at 37° C. Both unattached and detached cells harvested from each individual well were washed with ice-cold PBS and centrifuged at 260×g for 5 min. HL-60 were centrifuged directly after the incubation period as they grow in suspension. Cells were then stained with a mixture of annexin V-FITC and PI in 100 μl of binding buffer and incubated on ice in the dark for 15 minutes, following the manufacturer's instructions (Beckman Coulter). Lastly, the cells were resuspended by the addition of 400 μl of ice-cold binding buffer and analysed by flow cytometry (Cytomics FC500; Beckman Coulter). For this series of experiments, cells treated with PBS, as solvent control; treated with H2O2, as a positive control of cytotoxicity; and untreated were included and processed in parallel. For each sample, 10,000 events/cells were collected and analysed using CXP software (Beckman Coulter). Both the experimental samples and their controls were processed similarly and assessed in triplicate. The sum of both early and late stages of apoptosis was calculated to obtain the total percentage of apoptotic cells.
A general note: In flow cytometry, cells or beads pass a laser one at a time.

Another series relates to HL-60 cells. The description is as above. The series is classed as cell-based, human. The conditions noted are these: positive control, 24 h. The method, then: as §1
The mark [3] stands for this setting: Homo sapiens, MDA-MB-231, read-out: initial dose (CC50).

Where two headings read alike, the source gives them in different places. Where a SMILES comes first, the peptide text is derived from it. The star is where a group is joined. Cbz = O=C(OCc1ccccc1)*

Turning to `N.N.[Cl][Pt][Cl]` [cisplatin], the CC50 (in general, the concentration at which the toxic effect on the cells reaches its halfway point) in series [1] was 95400 nM.

As for `CCN(CC)CCCC(C)Nc1c2ccc(Cl)cc2nc2ccc(OC)cc12` (stereo not shown) [quinacrine], the DNA mobility shift entry in series [2] (0.5 and 0.25 mM, 100 ng plasmid DNA) is listed as “clear retardation mobility of the DNA”; in series [2] (1 (unit uncertain), 100 ng plasmid DNA, 30 min 37° C.), “maximum retardation of DNA mobility”. The DNA degradation result in series [2] (fragments smaller than free supercoiled DNA) was “did not exhibit any DNA degradation activity”.

Take `CC(C)C[C@@H](C=O)NC(=O)[C@H](CC(C)C)NC(=O)[C@H](CC(C)C)NC(=O)OCc1ccccc1` [MG132] (Cbz-Leu-Leu-Leu-aldehyde): in series [1] (setting [3]), the CC50 came to 500 nM.

In the case of `Nc1ccn([C@@H]2O[C@H](CO)[C@@H](O)C2(F)F)c(=O)n1` [gemcitabin], in series [1] (setting [3]), the CC50 stood at 440 nM.

Consider `OO` [H2O2, hydrogen peroxide], for which the “mode of cytotoxic effect (apoptosis or necrosis)” value in the series with MDA-MB-231 cells is given as “apoptosis”; in the series with HL-60 cells, “necrosis”.

As for `CC(C)C[C@H](NC(=O)[C@H](Cc1ccccc1)NC(=O)c1cnccn1)B(O)O` [bortezomib], in series [1] (setting [3]), the CC50 stood at 10 nM.

With `CC[N+](C)(CC)CCC[n+]1c(-c2ccccc2)c2cc(N)ccc2c2ccc(N)cc21.[I-].[I-]` [PI, propidium iodide], the DNA mobility shift entry in series [2] (positive control, 1 μg per reaction) is on record as “provoked retardation of the DNA mobility”.

For the origin of these results see patent US12201626B2, “Bifunctional compositions for the treatment of cancer” (ARMACEUTICA, INC., priority 2018, dated 2025).
